Measured values taken from US9815787B2, “Sulfonamide derivative or pharmaceutically acceptable acid addition salt thereof” (UNIVERSITY OF TSUKUBA, priority 2013, dated 2017).

Biological target: T1, OX2R (Homo sapiens, UniProt O43614)
T1 construct: expressed in transfected cells; host or cells: CHO (Chinese hamster ovary) cells constitutively expressing the OX2R gene and NFAT-luciferase (CHOOX2R)
T1 sequence (O43614 1-444): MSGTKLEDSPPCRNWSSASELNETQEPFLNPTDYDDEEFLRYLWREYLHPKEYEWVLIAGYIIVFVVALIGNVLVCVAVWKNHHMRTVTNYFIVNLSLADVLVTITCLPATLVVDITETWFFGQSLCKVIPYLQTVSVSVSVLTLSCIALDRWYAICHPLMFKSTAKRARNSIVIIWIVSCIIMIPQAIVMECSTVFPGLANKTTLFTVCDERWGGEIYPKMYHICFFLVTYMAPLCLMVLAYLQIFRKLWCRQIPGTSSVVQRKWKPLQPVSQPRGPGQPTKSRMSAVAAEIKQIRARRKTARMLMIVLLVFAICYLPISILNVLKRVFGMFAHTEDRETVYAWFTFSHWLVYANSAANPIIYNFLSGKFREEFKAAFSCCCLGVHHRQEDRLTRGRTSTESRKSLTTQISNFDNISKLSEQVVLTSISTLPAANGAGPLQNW
Assay: Evaluation of agonist activity against OX2R (CHOOX2R cells, Fura2AM fluorescence, FDSS3000)
Assay type: cell-based
Experimental: Evaluation of Agonist Activity Against OX2R
NFAT-luciferase gene and OX2R gene were each constitutively expressed in CHO cell, which is a cell line derived from Chinese hamster ovary to establish a cell line (CHOOX2R). The cells thereof were sown on a 96 well plate at 10000 cells/well, and cultured in a 5% FBS-added DMEM medium for 48 hr. […] After washing, HEPES buffer (75 μL) was added, a test compound solution (25 μL) was added, and changes in the fluorescence intensity were measured by FDSS3000 (Hamamatsu Photonics K.K.). The test compound was dissolved in DMSO (final concentration of DMSO was 1%), and diluted with HEPES buffer to a final concentration of 0.1 μM, 1.0 μM or 10 μM.

[1] = test compound 0.1 μM; relative to orexin-A as full agonist (100%); CHOOX2R cells
[2] = test compound 1.0 μM; relative to orexin-A as full agonist (100%); CHOOX2R cells
[3] = test compound 10 μM; relative to orexin-A as full agonist (100%); CHOOX2R cells
[4] = test compound 0.1 μM; CHOOX2R cells; relative to orexin-A as full agonist (100%)
[5] = test compound 1.0 μM; CHOOX2R cells; relative to orexin-A as full agonist (100%)
[6] = test compound 10 μM; CHOOX2R cells; relative to orexin-A as full agonist (100%)
[7] = OX2R agonist activity; CHOOX2R cells
[8] = conversion with orexin-A as full agonist (maximum agonist activity 100%)

Structure (SMILES) | Response (0.1 μM (%)) [1] [%] | Response (1.0 μM (%)) [2] [%] | Response (10 μM (%)) [3] [%] | Response (0.1 μM (%)) [4] [%] | Response (1.0 μM (%)) [5] [%] | Response (10 μM (%)) [6] [%] | EC50 [7] [nM] | Emax [8] [%]
COc1cccc(C(=O)NCCNc2cccc(NS(=O)(=O)c3cc(-c4c(F)cccc4OC)ccc3OC)c2)c1 [Example 24, N-(2-((3-(2′-fluoro-4,6′-dimethoxy-[1,1′-biphenyl]-3-ylsulfonamide)phenyl)amino)ethyl)-3-methoxybenzamide] | <5 | <5 | <5 |  |  |  |  | 
COc1ccc(-c2cccc(C(=O)N(C)C)c2)cc1S(=O)(=O)Nc1cccc(NCCNC(=O)c2cnccc2Cl)c1 [Example 57, 4-chloro-N-(2-((3-(3′-(dimethylcarbamoyl)-4-methoxy-[1,1′-biphenyl]-3-ylsulfonamido)phenyl)amino)ethyl)nicotinamide] |  |  |  | <5 | 9 | 87 |  | 
COc1ccc(-c2cccc(C(=O)N(C)C)c2)cc1S(=O)(=O)Nc1cccc(NCCNC(=O)c2nccn2C)c1 [Example 63, N-(2-((3-(3′-(dimethylcarbamoyl)-4-methoxy-[1,1′-biphenyl]-3-ylsulfonamido)phenyl)amino)ethyl)-1-methyl-1H-imidazole-2-carboxamide] |  |  |  | <5 | 81 | 82 |  | 
COc1ccc(-c2cccc(C(=O)N(C)C)c2)cc1S(=O)(=O)Nc1cccc(NCCNC(=O)c2ncccc2Cl)c1 [Example 51, 3-chloro-N-(2-((3-(3′-(dimethylcarbamoyl)-4-methoxy-[1,1′-biphenyl]-3-ylsulfonamido)phenyl)amino)ethyl)picolinamide] |  |  |  | <5 | 9 | 87 | 3280 | 87
COc1cccc(C(=O)NCCNc2cccc(NS(=O)(=O)c3cc(-c4cccc(C(=O)N(C)C)c4)ccc3OC)c2)c1 [Example 41, 4′-methoxy-3′-(N-(3-((2-(3-methoxybenzamido)ethyl)amino)phenyl)sulfamoyl)-N,N-dimethyl-[1,1′-biphenyl]-3-carboxamide] |  |  |  | 70 | 107 | 115 | 33 | 57
COc1cccc(C(=O)NCCNc2cccc(NS(=O)(=O)c3cc(-c4cc(OC)ccc4F)ccc3OC)c2)c1 [Example 35, N-(2-((3-(2′-fluoro-4,5′-dimethoxy-[1,1′-biphenyl]-3-ylsulfonamide)phenyl)amino)ethyl)-3-methoxybenzamide] |  |  |  | 13 | 68 | 127 |  | 
COc1ccccc1C(=O)NCCNc1cccc(NS(=O)(=O)c2cc(-c3cc(F)ccc3Cl)ccc2OC)c1 [Example 32, N-(2-((3-(2′-chloro-5′-fluoro-4-methoxy-[1,1′-biphenyl]-3-ylsulfonamide)phenyl)amino)ethyl)-2-methoxybenzamide] | <5 | 26 | 75 |  |  |  |  | 
COc1ccccc1C(=O)NCCNc1cccc(NS(=O)(=O)c2cc(-c3cccc(C(=O)N4CCCC4)c3)ccc2OC)c1 [Example 75, 2-methoxy-N-(2-((3-(4-methoxy-3′-(pyrrolidine-1-carbonyl)-1-[1,1′-biphenyl]-3-ylsulfonamide)phenyl)amino)ethyl)benzamide] |  |  |  | 49 | 87 | 76 | 77 | 87
COc1ccccc1C(=O)NCCNc1cccc(NS(=O)(=O)c2cc(-c3cccc(C(=O)N4CCC4)c3)ccc2OC)c1 [Example 81, N-(2-((3-(3′-(azetidine-1-carbonyl)-4-methoxy-[1,1′-biphenyl]-3-ylsulfonamido)phenyl)amino)ethyl)-2-methoxybenzamide] |  |  |  | 75 | 98 | 98 | 365 | 85
COc1cccc(C(=O)NCCNc2cccc(NS(=O)(=O)c3cc(-c4cc(F)ccc4F)ccc3OC)c2)c1 [Example 20, N-(2-((3-(2′,5′-difluoro-4-methoxy-[1,1′-biphenyl]-3-ylsulfonamide)phenyl)amino)ethyl)-3-methoxybenzamide] | <5 | 13 | 180 |  |  |  |  | 
COc1ccccc1C(=O)NCCNc1cccc(NS(=O)(=O)c2cc(-c3cccc(C(=O)NCCO)c3)ccc2OC)c1 [Example 74, N-(2-hydroxyethyl)-4′-methoxy-3′-(N-(3-((2-(2-methoxybenzamido)ethyl)amino)phenyl)sulfamoyl)-[1,1′-biphenyl]-3-carboxamide] |  |  |  | <5 | 51 | 92 |  | 
COc1ccccc1C(=O)NCCNc1cccc(NS(=O)(=O)c2cc(-c3cccnc3)ccc2OC)c1 [Example 96, 2-methoxy-N-(2-((3-(2-methoxy-5-(pyridin-3-yl)phenylsulfonamido)phenyl)amino)ethyl)benzamide] |  |  |  | <5 | 61 | 88 | 268 | 88
COc1ccccc1C(=O)NCCNc1cccc(NS(=O)(=O)c2cc(-c3cccc(C(=O)N(C)C(C)(C)C)c3)ccc2OC)c1 [Example 76, N-(tert-butyl)-4′-methoxy-3′-(N-(3-((2-(2-methoxybenzamido)ethyl)amino)phenyl)sulfamoyl)-N-methyl-[1,1′-biphenyl]-3-carboxamide] |  |  |  | 24 | 95 | 98 |  | 
COc1ccccc1C(=O)NCCNc1cccc(NS(=O)(=O)c2cc(-c3ccccc3OC)ccc2OC)c1 [Example 12, N-(2-((3-(2′,4-dimethoxy-[1,1′-biphenyl]-3-ylsulfonamide)phenyl)amino)ethyl)-2-methoxybenzamide] | <5 | 44 | 73 |  |  |  |  | 
COc1ccc(-c2cccc(C(=O)N3CCCC3)c2)cc1S(=O)(=O)Nc1cccc(NCCNC(=O)c2c(F)cccc2F)c1 [Example 88, 2,6-difluoro-N-(2-((3-(4-methoxy-3′-(pyrrolidine-1-carbonyl)-[1,1′-biphenyl]-3-ylsulfonamido)phenyl)amino)ethyl)benzamide] |  |  |  | 76 | 100 | 86 |  | 
COCCN(C)C(=O)c1cccc(-c2ccc(OC)c(S(=O)(=O)Nc3cccc(NCCNC(=O)c4ccccc4OC)c3)c2)c1 [Example 77, 4′-methoxy-3′-(N-(3-((2-(2-methoxybenzamido)ethyl)amino)phenyl)sulfamoyl)-N-(2-methoxyethyl)-N-methyl-[1,1′-biphenyl]-3-carboxamide] |  |  |  | 42 | 91 | 82 |  | 
COc1ccc(Br)cc1C(=O)NCCNc1cccc(NS(=O)(=O)c2cc(-c3ccccc3F)ccc2OC)c1 [Example 4, 5-bromo-N-(2-((3-(2′-fluoro-4-methoxy-[1,1′-biphenyl]-3-ylsulfonamide)phenyl)amino)ethyl)-2-methoxybenzamide] | <5 | <5 | 17 |  |  |  |  | 
COc1cccc(C(=O)NCCNc2cccc(NS(=O)(=O)c3cc(-c4cc(Cl)cc(Cl)c4)ccc3OC)c2)c1 [Example 28, N-(2-((3-(3′,5′-dichloro-4-methoxy-[1,1′-biphenyl]-3-ylsulfonamide)phenyl)amino)ethyl)-3-methoxybenzamide] | <5 | <5 | <5 |  |  |  |  | 
COc1ccc(-c2cccc(C(=O)N(C)C)c2)cc1S(=O)(=O)Nc1cccc(NCCNC(=O)c2ccc(Cl)s2)c1 [Example 61, 5-chloro-N-(2-((3-(3′-(dimethylcarbamoyl)-4-methoxy-[1,1′-biphenyl]-3-ylsulfonamido)phenyl)amino)ethyl)thiophene-2-carboxamide] |  |  |  | <5 | 18 | 69 |  | 
COc1ccc(-c2cccc(C(=O)N3CCCCC3)c2)cc1S(=O)(=O)Nc1cccc(NCCNC(=O)c2cccc(F)c2)c1 [Example 92, 3-fluoro-N-(2-((3-(4-methoxy-3′-(piperidine-1-carbonyl)-[1,1′-biphenyl]-3-ylsulfonamido)phenyl)amino)ethyl)benzamide] |  |  |  | 27 | 92 | 94 |  | 
